In patent publication US20060019980A1, “Methods for treating or preventing erectile dysfunction or urinary incontinence” (Inotek Pharmaceutical, Corp., priority 2004, published 2006):
Counter-ions that a name gives are not always drawn.

System: male Sprague-Dawley rats
Test: cavernous nerve crush injury rat model: erectile function (ICP, ICP/MAP) on cavernosal nerve stimulation
Type: in vivo
Protocol: Experiments were conducted in male Sprague-Dawley rats according to previously published methods for forceps-induced nerve crush injury and erectile function measurements (Rehman, J., et al., Urology 51:640-644, 1998; Sezen, S. F., et al., Int J. Impot. Res. 14:506-12, 2002). Subjects were anesthetized with Phenobarbital. The prostate of the subjects was exposed and the cavernosal nerve was clipped on either side with a forceps to induce mechanical injury (crush). This rat model mimics the nerve injury that develops during human male prostatectomy, leading to nerve injury and subsequent erectile dysfunction. Subjects were studied 2 weeks after the injury. Two groups of subjects were used, one group treated with vehicle and one group treated with compound 8l methanesulfonate salt. Compound 8l methanesulfonate salt was injected at 30 mg/kg i.v. immediately before the crush injury, and on the following day at the same dose. Thereafter, for 12 days, subjects were treated with 60 mg/kg compound 8l methanesulfonate salt intraperitoneally. At 2 weeks, subjects were re-anesthetized and measured for mean arterial blood pressure (MAP) and intracavernosal pressure (ICP). Cavernosal nerve stimulation was conducted at 5 and 7.5 V using a square pulse stimulator for 30 msec. ICP was determined as the area under curve (mmHg×sec). In addition, IPC/MAP ratios were determined.

O=c1[nH]c2c(c3ccccc13)Cc1cc(S(=O)(=O)NCCCN3CCOCC3)ccc1-2 [Compound 8l methanesulfonate salt]
erectile function (rat model that mimics the nerve injury that develops during human male prostatectomy, versus vehicle): improves erectile function | ICP (intracavernosal pressure, area under curve) (rats 2 weeks after cavernous nerve crush injury, 30 mg/kg i.v. immediately before injury and next day, then 60 mg/kg i.p. for 12 days, cavernosal nerve stimulation at 5 and 7.5 V, mean ± SEM, n = 14-16, *p < 0.05, vehicle 1124 ± 212, normal approx. 4000): 1471 ± 151* mmHg × sec | ICP/MAP ratio (rats 2 weeks after cavernous nerve crush injury, 30 mg/kg i.v. immediately before injury and next day, then 60 mg/kg i.p. for 12 days, mean ± SEM, n = 14-16, *p < 0.05, vehicle 0.16 ± 0.03, normal approx. 0.8-0.9): 0.23 ± 0.02*
